The nature of data set [1]: In vitro microsomal stability, rat. The data set is classed as in vitro ADME. As to conditions: rat microsomes, 1 µM; value of 10 = low clearance, essentially below detection limit. As to the method:
(§1) Incubations of a test compound at a concentration of 1 µM with microsomes (0.5 mg/ml) from the appropriate species (human, mouse, or rat) plus cofactor NADPH were performed in 96-well plates at 37°C on a TECAN automated liquid handling system (Tecan Group Ltd., Männedorf, Switzerland). After pre-incubation of the test compound with the microsomes for 10 min, the enzymatic reaction was started by the addition of cofactors. Aliquots of the incubations are removed at 1, 3, 6, 9, 15, 25, 35, and 45 min and are then quenched with 1:3 (v/v) acetonitrile containing internal standards. Samples were then cooled and centrifuged before analysis of the supernatant by LC-MS/MS. Logarithmic Peak area ratios (test compound peak area/internal standard peak area) were plotted against incubation time and a linear fit made to the data with emphasis upon the initial rate of compound disappearance. The slope of the fit was then used to calculate the intrinsic clearance: Clint (µL/min/mg protein) = −slope (min-1) * 1,000/[protein concentration (mg/ml)].

Data set [2] can be described thus: In vitro microsomal stability, human. The data set is classed as in vitro ADME. As to conditions: human microsomes, 1 µM; value of 10 = low clearance, essentially below detection limit. As to the method:
as §1

Data set [3] can be described thus: Glutathione addition screening. The data set is classed as in vitro ADME. Conditions: human liver microsomes + NADPH + GSH. As to the method:
All sample handling was performed based on a 96-well plate format using an automated pipetting system. The test compounds, positive controls (diclofenac, troglitazone, nefazodone, 4-[[1-(4-fluorophenyl)-2-methyl-1H-imidazol-4-yl]ethynyl]-2-methylpyridine) and solvent control (DMSO) were incubated with human liver microsomes supplemented with NADPH and reduced GSH. Stable GSH conjugates whose production can be assumed to be the result of chemically reactive metabolites were detected using a quadrupole time of flight mass spectrometer run in untargeted full scan accurate mass MSE mode (Waters Xevo G1 QTOFMSE; Waters GmbH, Eschborn, Germany). This generic GSH adduct detection method and the assay workflow are taking advantage of the specific fragmentation behavior of the peptide moiety upon collision induced dissociation of GSH adducts and so are largely independent of the conjugate (“X”) itself.
(In general: Microsomes from liver hold many membrane-bound enzymes, among them those of drug oxidation.)

Data set [4] has as its target T1, human ATX (Homo sapiens, UniProt Q13822).
T1 construct: made in house
Nature of the data set: Autotaxin inhibition assay (Amplex-Red). The data set is classed as biochemical. As to conditions: ATX 3 nM, LPC 18:1 30 μM, read-out: hATX IC50. As to the method:
Plates were sealed and incubated for 5 min. The final assay concentrations were ATX 3 nM, choline oxidase 2 U/ml, horseradish peroxidase 4 U/ml, LPC 18:1 30 μM, Amplex Red 50 μM, and DMSO 2%.

Data set [5] is described as follows: HT-solubility assay. The data set is classed as physicochemical. As to conditions: aqueous buffer, thermodynamic from solid; phosphate buffer pH 6.5. As to the method: This assay was performed on a TECAN station starting from 10 mM DMSO stock solutions of the test compounds. Two aliquots of the test compound were dried and dissolved in phosphate buffer at pH 6.5. Sonication supports optimal re-solubilization. The solutions were then filtered and diluted (3 different dilution levels for each compound) followed by quantification of the dissolved material with Rapid-Fire MS. Quantification was performed for each test compound with a 6-point calibration curve prepared with the same DMSO starting solution.

A short description of data set [6]: Single dose PK in rats. The class given is in vivo. Conditions: rat; for AUC(0-inf) / half-life / clearance / Vd / Cmax / Tmax: plasma; for clearance: read-out: CLp; for Vd: read-out: Vdss. As to the method: Exposures in animals treated with ATX-inhibitors were determined from K2EDTA treated plasma by LC-MS/MS at different time points. 25 µL of plasma was used for a single concentration determination. Concentration/time profiles were analyzed with MS Excel (Microsoft Corporation, Redmond, WA, United States).
For PK experiments for 7, 13, 14, and 15, respectively, animals were treated either iv or po and exposures were determined at different time points after compound administration. Suitable formulations for 13 were, for example, NMP:Tris buffer pH 8.5 (30%/70%) for iv administration with a nominal drug concentration of 1 mg/ml (dose 2 mg/kg) and a suspension in NMP:gelatine/NaCl (10%/90%) for po administration with a nominal drug concentration of 2.5 mg/ml (dose 10 mg/kg). PK parameters in Table 2 were estimated from the concentration time profiles using Phoenix WinNonlin software (Certara, Princeton, NJ, United States).

Data set [7] in a line: Lipophilicity (LogD, octanol/buffer). The class given is physicochemical. As to conditions: 1-octanol / 25 mM phosphate buffer; pH 7.4, octanol/25 mM phosphate buffer. As to the method: The experiment started with the accurate coating of the hydrophobic layer (0.45 µm PVDF membranes), which was fixed on the bottom of each DIFI©-tube (Weidmann Medical Technology AG, Rapperswil, Switzerland). The coated membranes were then connected to a 96-well plate which has been prefilled with exactly 150 µl of the selected aqueous buffer solution (25 mM phosphate buffer, pH 7.4). The buffer solution contains already the compound of interest with a maximum starting concentration of 85 µM. To expand the measurement range down to logD = −0.5 and up to logD = +4, it is necessary to carry out the procedure at two different octanol/water ratios: One with an excess of octanol for hydrophilic compounds (logD < 1) and one with a low volume of octanol for the lipophilic compounds (logD > 1). Therefore, parts of the DIFI©-tubes were filled with 15 µl 1-octanol and another part with 1 µl 1-octanol. The resulting sandwich guarantees that the membrane was completely dipped in the buffer solution. The plate was then sealed and shaken for 12 h at room temperature (23°C). During this time, the substance is distributed between the layer, the octanol, and the buffer solution. After having reached a distribution equilibrium, the DIFI©-tubes were easily disassembled from the top of the 96-well plate, so that the remaining sample concentration in the aqueous phase could be analyzed by LC/MS.

Data set [8] in a line: In vitro microsomal stability, mouse. Conditions: mouse microsomes, 1 µM; value of 10 = low clearance, essentially below detection limit. The data set is classed as in vitro ADME. As to the method: as §1
The nature of data set [9]: Artificial membrane permeability assay. Conditions: PAMPA, read-out: Permeability Pe. The data set is classed as in vitro ADME. As to the method:
The assay was performed in an automated fashion on 96-well microplates. The permeation of drugs was measured using a “sandwich” construction: A filter-plate was coated with phospholipids (membrane) and placed into a donor compartment containing a compound/buffer solution. Finally, the top of filter-plate was filled with buffer solution (acceptor). Donor concentration was measured at t-start (reference) and compared with the donor and acceptor concentration after a certain time (t-end) to calculate the extent of passage of the compound through the membrane. The main readout of the assay was the permeability value Pe expressed in 10^–6 * cm/s. Secondary readouts determined were the amount of compound in the donor and acceptor compartments as well as the retention in the membrane. Depending on the permeation rate and the membrane retention the compounds were classified as low (Pe < 0.2 and membrane < 20%) or medium and high (Pe ≥ 0.2 or Pe < 0.2 and membrane ≥ 20%). Each sample was measured in triplicate and a standard deviation was determined for the permeation constant Pe.
For orientation: PAMPA measures passive passage across an artificial lipid membrane.

Usually IC50 stands for the concentration that inhibits the measured activity by half. As a reminder, the solubility is the concentration that dissolves in the medium under given conditions. The low end stands for a poorly soluble substance, the high end for a readily soluble substance. In general, AUC(0-inf) refers to total exposure, with the tail of the curve extrapolated. By half-life is commonly meant the time in which the quantity being followed falls by half. One may read the Cmax as the peak of the concentration-time curve. As a reminder, the Tmax is the time at which the peak concentration occurs. What is called logD is the decadic logarithm of the distribution of all forms, ionised or not, between an organic phase and buffer at a given pH.

Values after ≈ are worked out from the molar mass of the structure shown.

Consider `O=C(OCc1cc(Cl)cc(Cl)c1)N1C[C@@H]2CN(C(=O)c3ccc4[nH]nnc4c3)C[C@H]2C1` [Compound 7, (3aS,6aS)-5-(1H-Benzotriazole-5-carbonyl)-hexahydro-pyrrolo [3,4-c]pyrrole-2-carboxylic acid 3,5-dichloro-benzyl ester], for which, in [1], the “Mic CL r” value was found to be 10 µL/m/mg prot. The “Mic CL h” value in [2] is given as 16 µL/m/mg prot. Moreover, the GSH adducts entry in data set [3] is “pos”. For the same molecule, the IC50 in data set [4] was 4 nM. Also, the solubility in data set [5] amounted to 9 µg/mL (≈ 19.6 µM). For the same molecule, in [6] (iv bolus, 3 mg/kg), the AUC(0-inf) came to 2140 ng·h/mL, the half-life was 48 min, the clearance turned out to be 23 mL/min/kg and the Vd amounted to 1.3 L/kg. Moreover, in data set [6] (oral gavage, 20 mg/kg), the total exposure AUC(0-inf) is 7900 ng·h/mL, the Cmax worked out at 2500 ng/mL, the Tmax was determined as 15 min and the half-life was 96 min. For the same molecule, the “Oral F” value in [6] (oral gavage, 20 mg/kg) is given as 54%. The logD at 12 h in data set [7] was 3.1. Further, the “Mic CL m” value in data set [8] came to 17 µL/m/mg prot.

With `O=C(COc1ccc(OC(F)(F)F)cc1)N1C[C@@H]2CN(C(=O)c3ccc4[nH]nnc4c3)C[C@H]2C1` [Compound 12, 1-[(3aS,6aS)-5-(1H-Benzotriazole-5-carbonyl)-hexahydro-pyrrolo[3,4-c]pyrrol-2-yl]-2-(4-trifluoromethoxy-phenoxy)-ethanone], the “Mic CL r” value in [1] is recorded as 10/na/10 µL/m/mg prot. Also, the “Mic CL h” value in data set [2] is listed as 10/na/10 µL/m/mg prot. The GSH adducts entry in data set [3] is “Neg”. The IC50 in data set [4] came out at 137 nM. In addition, the solubility in data set [5] is 8 µg/mL (≈ 16.8 µM). Also, in data set [7], the logD at 12 h was determined as 3.2. The Papp in [9] stood at 1.8 ×10⁻⁶ cm/s.

Take `O=C(CCc1ccc(OC(F)(F)F)cc1)N1C[C@@H]2CN(C(=O)c3ccc4[nH]nnc4c3)C[C@H]2C1` [Compound 14, 1-[(3aR,6aR)-5-(1H-benzotriazole-5-carbonyl)-hexahydro-pyrrolo[3,4-c]pyrrol-2-yl]-3-(4-trifluoromethoxy-phenyl)-propan-1-one]: the “Mic CL r” value in data set [1] is 40 µL/m/mg prot. For the same molecule, in data set [2], the “Mic CL h” value turned out to be 10 µL/m/mg prot. For the same molecule, the GSH adducts result in data set [3] was “Neg”. The IC50 in data set [4] was determined as 6 nM. The same molecule gave a solubility in data set [5] of 46 µg/mL (≈ 97.2 µM). In [6] (iv bolus, 3 mg/kg), the AUC(0-inf) was determined as 1070 ng·h/mL, the half-life is 78 min, the clearance was found to be 47 mL/min/kg and the Vd stood at 0.9 L/kg. Moreover, in [6] (oral gavage, 30 mg/kg), the AUC(0-inf) was 660 ng·h/mL, the Cmax is 130 ng/mL, the Tmax stood at 30 min and the half-life was 228 min. Further, the “Oral F” value in data set [6] (oral gavage, 30 mg/kg) is given as 6%. The molecule further registered a logD at 12 h in data set [7] of 2.5. Also, the Papp in [9] turned out to be 2.7 ×10⁻⁶ cm/s. Moreover, in data set [8], the “Mic CL m” value amounted to 27 µL/m/mg prot.

`CS(=O)(=O)c1cc(Cl)cc(COC(=O)N2C[C@@H]3CN(C(=O)c4ccc5[nH]nnc5c4)C[C@H]3C2)c1` [Compound 15, (3aS,6aS)-5-(1H-Benzotriazole-5-carbonyl)-hexahydro-pyrrolo[3,4-c]pyrrole-2-carboxylic acid 3-chloro-5-methanesulfonyl-benzyl ester]: the “Mic CL h” value in data set [2] was 10/10/na µL/m/mg prot. Besides, in data set [3], the GSH adducts result was “Neg”. For the same molecule, the IC50 in data set [4] came to 8 nM. This molecule registered a solubility in data set [5] of 190 µg/mL (≈ 377 µM). Also, in [6] (iv bolus, 3 mg/kg), the AUC(0-inf) was found to be 321 ng·h/mL, the half-life is 21 min, the clearance was found to be 156 mL/min/kg and the Vd came out at 1.7 L/kg. Besides, in data set [6] (oral gavage, 30 mg/kg), the AUC(0-inf) turned out to be 30 ng·h/mL, the highest level (Cmax) was 18 ng/mL, the time to peak (Tmax) is 15 min and the half-life was 114 min. For the same molecule, the “Oral F” value in data set [6] (oral gavage, 30 mg/kg) was 1.1%. The same molecule had a logD at 12 h in data set [7] of 2. The Papp in data set [9] worked out at 0.4 ×10⁻⁶ cm/s. Besides, the “Mic CL m” value in data set [8] was 10/10/na µL/m/mg prot.

The values above are taken from article PMC8807399, “Synthesis, Characterization, and in vivo Evaluation of a Novel Potent Autotaxin-Inhibitor” (Frontiers in Pharmacology, 2022).
